According to patent publication US6403617B1, “Diaminopyridine-containing thiourea inhibitors of herpes viruses” (American Home Products Corp., priority 1998, dated 2002):
≈ marks a conversion by molar mass, not a printed value.

Experiments:
HCMV wild-type = assay: HCMV yield assay; format: cell-based, Human Cytomegalovirus; settings: human foreskin fibroblasts, reduction of virus yield by 50%; for IC50: Human betaherpesvirus 5, Fibroblast, read-out: IC50 (ug/ml) HCMV
Procedure: Yield assay. Monolayer cultures of human foreskin fibroblasts are infected with HCMV wild-type, typically at a multiplicity of infection equal to 0.2, in the presence of inhibitor compound (varying concentrations). At three days post-infection, total virus produced in these cultures (i.e. virus yield) is assessed by harvesting and titering the virus in 12-well plates of cultured human foreskin fibroblasts (done in the absence of inhibitor). Plaques are quantified at 2 weeks post-infection. An inhibitor of HCMV is identified by the reduction in titer of virus yield in the presence, compared to the titer in the absence of compound. In this assay, the relative anti-HCMV activity of an inhibitor is typically determined by calculating the IC50 or IC90 value, that is, the amount of compound required to reduce the virus yield by 50% or 90%, respectively. Table I describes IC50 data for compounds tested against HCMV.

VZV strain Ellen = assay: VZV Antiviral (ELISA) Assay; format: cell-based, varicella-zoster virus; settings: human foreskin fibroblast cells, three days; for inhibition at 10 µg/mL / IC50: Human alphaherpesvirus 3, 72 h; for inhibition at 10 µg/mL: read-out: % inhibition 10 ug/ml VZV, 10 ug/ml; for IC50: read-out: IC50 (ug/ml) VZV
Procedure: For the generation of stock VZV to be used in the assay, VZV strain Ellen (ATCC #VR-1367) is used to infect human foreskin fibroblast (HFF) cells at low multiplicity (less than 0.1) and incubated overnight at 37° C. in 5% CO2. After the overnight incubation, the mixture of uninfected and VZV-infected HFF infected cells are then harvested and added to each well of 96-well plates (3.5×10^4 cells in 100 μl DMEM supplemented with 2% FBS) which contain test compound or the reference standard drug control (in 100 μl DMEM supplemented with 2% FBS per well). These cells are incubated for three days at 37° C. in 5% CO2, then fixed for ELISA assay. The primary antibody is murine anti-VZV glycoprotein II monoclonal antibody (Applied Biosystems, Inc. #13-145-100) and the secondary antibody is goat anti-mouse IgG linked to β-galactosidase. Thus the extent of viral replication is determined by assessing β-galactosidase activity by quantifying the generation of the 4-methyl umbelliferone fluorescent cleavage product after addition of the methyl umbelliferyl-β-D-galactoside (Sigma #M1633) substrate on a microfluorimeter (365 nm for excitation and 450 nm for emission). Antiviral activity (IC50) of the test compound is determined by comparing the flourescence obtained in absence of compound to that obtained in the presence of compound.

HSV-1 = assay: HSV Antiviral (ELISA) Assay; format: cell-based, herpes simplex virus type 1; settings: Human alphaherpesvirus 1; Vero cells, HSV-1, about 24 hours post-infection; read-out: IC50 (ug/ml) HSV
Procedure: Vero cells (ATCC #CCL-81) are plated on 96-well tissue cultugre plates at 3.5×10^4 cells per 100 μl tissue culture DMEM (Dulbecco's modified Eagle media) supplemented with 2% fetal bovine serum (FBS) in each well. After overnight incubation @ 37° C. (in 5% CO2) and 30 minutes prior to infection with HSV-1 (multiplicity of infection equal to 0.006), cells are either untreated, or treated with test compound (multiple concentrations) or reference standard drug control. After approximately 24 hours post-infection incubation @ 37° C. (in 5% CO2), cells are fixed for ELISA assay. The primary antibody is murine anti-HSV glycoprotein D monoclonal primary antibody and the secondary antibody is goat anti-mouse IgG linked to β-galactosidase. Thus the extent of viral replication is determined by assessing β-galactosidase activity by quantifying the generation of the 4-methyl umbelliferone fluorescent cleavage product after addition of the methyl umbelliferyl-β-D-galactoside (Sigma #M1633) substrate on a microfluorimeter (365 nm for excitation and 450 nm for emission). Antiviral activity (IC50) of the test compound is determined by comparing the flourescence obtained in absence of compound to that obtained in the presence of compound.

| Compound | IC50 (HCMV wild-type) [µg/mL] | inhibition at 10 µg/mL (VZV strain Ellen) [%] | IC50 (VZV strain Ellen) [µg/mL] | IC50 (HSV-1) [µg/mL] | IC50 (ug/ml) HCMV (HCMV wild-type) [µg/mL] | IC50 (ug/ml) VZV (VZV strain Ellen) [µg/mL] |
| --- | --- | --- | --- | --- | --- | --- |
| COc1cc(OC)c(NC(=S)Nc2ccc(NC(=O)c3ccccc3C)nc2)cc1Cl [Example 283, N-[5-[[[(5-Chloro-2,4-dimethoxyphenyl)amino]thioxomethyl]amino]-2-pyridinyl]-2-methylbenzamide] | 7 (≈ 15.3 µM) | 17 | > 10 | 0.6 (≈ 1.31 µM) |  |  |
| COc1cc(OC)c(NC(=S)Nc2cccnc2NC(=O)c2ccco2)cc1Cl [Example 284, Furan-2-carboxylic acid {3-[3-(5-chloro-2,4-dimethoxy-phenyl)-thioureido]-pyridin-2-yl}-amide] | 0.4 (≈ 0.924 µM) | 100 | > 15 | 3 (≈ 6.93 µM) |  |  |
| COc1cc(OC)c(NC(=S)Nc2ccc(NC(=O)c3ccccc3F)nc2)cc1Cl [Example 289, N-{5-[3-(5-Chloro-2,4-dimethoxy-phenyl)-thioureido]-pyridin-2-yl}-2-fluoro-benzamide] | > 10 | 30 | > 10 | 0.6 (≈ 1.3 µM) |  |  |
| COc1cc(OC)c(NC(=S)Nc2cccnc2NC(=O)c2csnn2)cc1Cl [Example 498, [1,2,3]Thiadiazole-4-carboxylic acid {3-[3-(5-chloro-2,4-dimethoxy-phenyl)-thioureido]-pyridin-2-yl}-amide] | 0.14 (≈ 0.31 µM) | 14 | > 10 | 6 (≈ 13.3 µM) |  |  |
| COc1cc(OC)c(NC(=S)Nc2ccc(NC(=O)c3ccccn3)nc2)cc1Cl [Example 499, Pyridine-2-carboxylic acid {5-[3-(5-chloro-2,4-dimethoxy-phenyl)-thioureido]-pyridin-2-yl}-amide] | 3 (≈ 6.76 µM) | 25 | > 10 | 5 (≈ 11.3 µM) |  |  |
| COc1cc(OC)c(NC(=S)Nc2ccc(NC(=O)c3ccccc3F)cn2)cc1Cl [Example 507, N-{6-[3-(5-Chloro-2,4-dimethoxy-phenyl)-thioureido]-pyridin-3-yl}-2-fluoro-benzamide] | 1.2 (≈ 2.6 µM) | 90 | 4 (≈ 8.68 µM) | 10 (≈ 21.7 µM) |  |  |
| COc1cc(OC)c(NC(=S)Nc2ccc(NC(=O)c3ccco3)cn2)cc1Cl [Example 512, Furan-2-carboxylic acid {6-[3-(5-chloro-2,4-dimethoxy-phenyl)-thioureido]-pyridin-3-yl}-amide] | 0.7 (≈ 1.62 µM) | 70 | 4 (≈ 9.24 µM) | 0.5 (≈ 1.16 µM) |  |  |
| O=C(Nc1ccc(NC(=S)NCc2cc(C(F)(F)F)cc(C(F)(F)F)c2)cn1)c1csnn1 [Example 815, N-{5-[({[3,5-bis(trifluoromethyl)benzyl]amino}carbothioyl)amino]-2-pyridinyl}-1,2,3-thiadiazole-4-carboxamide] | 0.0024 (≈ 0.00474 µM) |  | > 7.5 |  |  |  |
| C[C@H](NC(=S)Nc1ccc(NC(=O)c2csnn2)nc1)c1cc(C(F)(F)F)cc(C(F)(F)F)c1 [Example 816, N-(5-{[({(1S)-1-[3,5-bis(trifluoromethyl)phenyl]ethyl}amino)carbothioyl]amino}-2-pyridinyl)-1,2,3-thiadiazole-4-carboxamide] | 0.0015 (≈ 0.00288 µM) |  | > 7.5 |  |  |  |
| C[C@H](NC(=S)Nc1ccc(NC(=O)c2cscn2)nc1)c1cc(C(F)(F)F)cc(C(F)(F)F)c1 [Example 817, N-(5-{[({(1S)-1-[3,5-bis(trifluoromethyl)phenyl]ethyl}amino)carbothioyl]amino}-2-pyridinyl)-1,3-thiazole-4-carboxamide] | 0.001 (≈ 0.00192 µM) |  | > 7.5 |  |  |  |
| CC(NC(=S)Nc1ccc(NC(=O)c2cscn2)nc1)c1cc(C(F)(F)F)ccc1F (stereo not drawn) [Example 818, N-(5-{[({1-[2-fluoro-5-(trifluoromethyl)phenyl]ethyl}amino)carbothioyl]amino}-2-pyridinyl)-1,3-thiazole-4-carboxamide] | 0.0022 (≈ 0.00469 µM) |  | > 7.5 |  |  |  |
| CC(NC(=S)Nc1ccc(NC(=O)c2cscn2)nc1)c1ccc(C(F)(F)F)cc1F (stereo not drawn) [Example 819, N-(5-{[({1-[2-fluoro-4-(trifluoromethyl)phenyl]ethyl}amino)carbothioyl]amino}-2-pyridinyl)-1,3-thiazole-4-carboxamide] | 0.0022 (≈ 0.00469 µM) |  | > 7.5 |  |  |  |
| CC(NC(=S)Nc1ccc(NC(=O)c2cscn2)nc1)c1cc(F)cc(C(F)(F)F)c1 (stereo not drawn) [Example 820, N-(5-{[({1-[3-fluoro-5-(trifluoromethyl)phenyl]ethyl}amino)carbothioyl]amino}-2-pyridinyl)-1,3-thiazole-4-carboxamide] | 0.0013 (≈ 0.00277 µM) |  | 3.4 (≈ 7.24 µM) |  |  |  |
| C[C@H](NC(=O)Nc1ccc(NC(=O)c2cscn2)nc1)c1cc(C(F)(F)F)cc(C(F)(F)F)c1 [Example 821, N-(5-{[({(1S)-1-[3,5-bis(trifluoromethyl)phenyl]ethyl}amino)carbonyl]amino}-2-pyridinyl)-1,3-thiazole-4-carboxamide] | 0.014 (≈ 0.0278 µM) |  | > 7.5 |  |  |  |
| CC(NC(=S)Nc1ccc(NC(=O)c2cscn2)nc1)c1cccc(Br)c1 (stereo not drawn) [Example 822, N-{5-[({[1-(3-bromophenyl)ethyl]amino}carbothioyl)amino]-2-pyridinyl}-1,3-thiazole-4-carboxamide] | 0.05 (≈ 0.108 µM) |  | > 7.5 |  |  |  |
| CC(NC(=S)Nc1ccc(NC(=O)c2cscn2)nc1)c1ccccc1Br (stereo not drawn) [Example 823, N-{5-[({[1-(2-bromophenyl)ethyl]amino}carbothioyl)amino]-2-pyridinyl}-1,3-thiazole-4-carboxamide] | 0.05 (≈ 0.108 µM) |  | > 7.5 |  |  |  |
| CC(NC(=S)Nc1ccc(NC(=O)c2cscn2)nc1)c1cccc(C(F)(F)F)c1 (stereo not drawn) [Example 824, N-(5-{[({1-[3-(trifluoromethyl)phenyl]ethyl}amino)carbothioyl]amino}-2-pyridinyl)-1,3-thiazole-4-carboxamide] | 0.004 (≈ 0.00886 µM) |  | 3.2 (≈ 7.09 µM) |  |  |  |
| CC(NC(=S)Nc1ccc(NC(=O)c2cscn2)nc1)c1ccc(Cl)c(C(F)(F)F)c1 (stereo not drawn) [Example 825, N-(5-{[({1-[4-chloro-3-(trifluoromethyl)phenyl]ethyl}amino)carbothioyl]amino}-2-pyridinyl)-1,3-thiazole-4-carboxamide] | 0.003 (≈ 0.00617 µM) |  | 6.12 (≈ 12.6 µM) |  |  |  |
| CC(NC(=S)Nc1ccc(NC(=O)c2cscn2)nc1)c1ccc(Cl)c(F)c1 (stereo not drawn) [Example 826, N-{5-[({[1-(4-chloro-3-fluorophenyl)ethyl]amino}carbothioyl)amino]-2-pyridinyl}-1,3-thiazole-4-carboxamide] | 0.02 (≈ 0.0459 µM) |  | 0.86 (≈ 1.97 µM) |  |  |  |
| CC(NC(=S)Nc1ccc(NC(=O)c2cscn2)nc1)c1ccc(Cl)cc1F (stereo not drawn) [Example 827, N-{5-[({[1-(4-chloro-2-fluorophenyl)ethyl]amino}carbothioyl)amino]-2-pyridinyl}-1,3-thiazole-4-carboxamide] | 0.026 (≈ 0.0596 µM) |  |  |  |  |  |
| N-(6-{[({(1S)-1-[3,5-bis(trifluoromethyl)phenyl]ethyl}amino)carbothioyl]amino}-3-pyridinyl)-1,2,3-thiadiazole-4-carboxamide [Example 829] |  |  |  |  | 0.08 | >7.5 |
| N-{6-[({[1-(4-fluorophenyl)ethyl]amino}carbothioyl)amino]-3-pyridinyl}-1,2,3-thiadiazole-4-carboxamide [Example 828] |  |  |  |  | 0.45 | >7.5 |
